Laboratory results as given in PubChem BioAssay (NCI).
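96-well plates; 48 h exposure; 5 concentrations. Endpoints by linear interpolation between flanking doses. Not reached: highest tested concentration assigned. The concentration for full growth arrest is given as TGI.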

How the values were obtained:
Test in all cases: NCI tumour cell line growth inhibition, 48 h
[1] = test system: HL-60(TB) leukemia
[2] = test system: A549 NSCLC
[3] = test system: IGROV1 ovarian
[4] = test system: SF-295 CNS
[5] = test system: SR leukemia
[6] = test system: SK-MEL-5 melanoma
[7] = test system: 786-0 renal
[8] = test system: SK-OV-3 ovarian
[9] = test system: NCI-H23 lung
[10] = test system: M14 melanoma

SMILES	TGI [1] [µM]	TGI [2] [µM]	TGI [3] [µM]	TGI [4] [µM]	TGI [5] [µM]	TGI [6] [µM]	TGI [7] [µM]	TGI [8] [µM]	TGI [9] [µM]	TGI [10] [µM]
O=S(=O)(O)c1ccc2c(N=Nc3ccc(Sc4ccc(N=Nc5c(O)ccc6cc(S(=O)(=O)O)ccc56)cc4)cc3)c(O)ccc2c1	> 100	> 100	> 100	> 100	> 100	> 100	> 100	> 100	> 100	> 100
Cc1cc2ccc(N)nc2[nH]c1=O	> 100	> 100	> 100	> 100	> 100	> 100	> 100	> 100	> 100	> 100
CN(C)CCNC(=O)c1c(O)ccc2c1c1c(n2CCc2ccccc2)C(=O)c2ccccc2C1=O	18.1	23.2	21.8	15.9	7.11	7.21	11.3	31.5	28.8	3.47
CCOC(=O)c1cc(Br)c(-c2cc(C)co2)[nH]1	> 100	> 100	> 100	> 100	> 100	> 100	> 100	> 100	> 100	> 100
CC(=O)NC1C(OCc2ccccc2)OC(CO)C(O)C1OCC(=O)N[C@@H](C)C(=O)N[C@H](CCC(=O)NCCCNc1ccc([N+](=O)[O-])c2[nH]c3ccccc3c(=O)c12)C(N)=O (stereo not given in full)	> 100	> 100	> 100	> 100	> 100	> 100	> 100	> 100	> 100	> 100
O=C1c2cc([N+](=O)[O-])sc2C(=O)c2c([N+](=O)[O-])csc21	0.112	3.56	1.4	2.32	0.173	0.313	1.66	3.09	2.05	1.26
CCOC(=O)C1=C(C)N(Cc2ccccc2)C2(O)C=CC(=O)C3=C(O)c4ccccc4C(=O)C312 (stereo not given)	42.1	39.8	17.5	31.4	14.1	22	26.2	> 100	26.7	16.3
CC/C(N)=N\NC(=O)OC(C)(C)C	> 100	> 100	> 100	> 100	> 100	> 100	> 100	> 100	> 100	> 100
C[C@H](CCC(=O)NCC(=O)O)[C@H]1CC[C@H]2[C@@H]3[C@H](O)C[C@@H]4C[C@H](O)CC[C@]4(C)[C@H]3CC[C@]12C	> 100	> 100	> 100	> 100	> 100	> 100	> 100	> 100	> 100	> 100
CCNC(=S)N/N=C(\C)c1cccc(C)n1	53.6	> 100	> 100	> 100	> 100	23.8	> 100	> 100	> 100	26
CC1(C)CC(=O)C2=C(C1)OC1(CC2c2ccc(Cl)cc2)CC(c2ccc(Cl)cc2)C2=C(CC(C)(C)CC2=O)O1 (stereo not given)	24.1	30.9	33.4	> 53.2	87.2	31.4	35.9	29.4	34.9	> 52.1
Cc1csc(-n2c(C)nc3cc(Cl)ccc3c2=O)n1	> 100	> 100	> 100	> 100	> 100	> 100	> 100	> 100	> 100	> 100
CCCCC[C@H]1CCCCCCCCCC(=O)OC2C(O[C@@H]3OC(C)[C@H](OC(=O)[C@@H](C)CC)C(O[C@@H]4OC(C)[C@H](O)C(O)[C@@H]4O)[C@@H]3OC(=O)[C@H](C)CC)[C@H](OC3C(O)[C@@H](O)C(C)O[C@H]3O1)OC(CO)[C@H]2O (stereo not given in full)	35.9	31.2	31.8	32.7	34.7	30.9	31.7	29.3	34	32.3
CN(C)/C=C/C=C(/C=N/S(=O)(=O)C(F)(F)F)C1C=CN(S(=O)(=O)C(F)(F)F)C=C1	46.4	> 100	> 100	> 100	> 100	51.7	> 100	94	56.6	> 100
COC(=O)C(NC(=O)OC(C)(C)C)P(=O)(OC)OC (stereo not given)	> 100	> 100	> 100	> 100	> 100	> 100	> 100	> 100	> 100	> 100
CCOC(=O)C(C/C=C/CO)N(C)C(=O)OC(C)(C)C (stereo not given)	> 100	> 100	> 100	> 100	> 100	> 100	> 100	> 100	> 100	> 100
COc1cc(/C=N/NC2=NCCN2)ccc1O	> 100	> 100	> 100	> 100	> 100	> 100	> 100	> 100	> 100	> 100

SMILES	TGI [1] [µM]	TGI [2] [µM]	TGI [3] [µM]	TGI [4] [µM]	TGI [5] [µM]	TGI [6] [µM]	TGI [7] [µM]	TGI [8] [µM]	TGI [9] [µM]	TGI [10] [µM]
CN1CCN([C@H]2C[C@H]3[C@@H]4CC=C5C[C@@H](O)CC[C@]5(C)[C@H]4CC[C@]3(C)[C@H]2O)CC1	39.7	> 100	> 100	> 100	53.3	> 54.7	32.1	> 100	> 100	33.9
Cc1ccc2c(c1C)C(=O)/C(=C/c1cccc(C)c1C(=O)O)C2	> 100	> 100	> 100	> 100	> 100	> 100	> 100	> 100	> 100	> 100
CC[C@@]1(O)C(=O)OCc2c1cc1n(c2=O)Cc2c-1nc1ccccc1c2/C=N\NC(=O)C(N)Cc1c[nH]c2ccccc12 (stereo not given in full)	12.1	25.9	> 81.5	4.76	1.19	2.49	> 21.7	> 84	5.42	8.77
COc1cc2c3c(cc(Cl)nc3c1OC)C(O)(CC(=O)c1ccccc1)C(=O)N2 (stereo not given)	3.68	33.1	27.4	32.8	> 29	32.3	22	32.2	36.9	30.5
O=C(NCCCCCN1CCC2(CCCCC2)CC1)C(C1CCCCC1)C1CCCCC1	3.62	16.7	8.78	3.56	4.17	2.96	9.65	15.1	9.89	3.23
Cc1ccc(NC(=O)CC(=O)n2nc(C)c(N=Nc3cccc(C)c3)c2C)cc1	> 100	> 100	> 100	> 100	> 100	> 100	> 100	> 100	> 100	> 100
CC(C)(C)[Si](C)(C)OC[C@H](/C=C\CCCC(=O)O)NC1(c2ccccc2)c2ccccc2-c2ccccc21	37	> 100	97	> 100	32.3	23.3	30.3	72.8	63.2	38.8
CC(C)C(NC(=O)C(Cc1ccccc1)NC(=O)[C@H]1CCC[C@H]1NC(=O)C(Cc1ccc(OC(C)(C)C)cc1)NC(=O)OC(C)(C)C)C(N)=O (stereo not given in full)	> 100	45.5	> 100	34.5	> 100	21.5	> 100	57.6	35.7	33.6
COC1CC(OC2C(C)OC(OC3C(C)OC(OC4C(C)OC(O[C@H]5CC[C@@]6(C)C(=CC[C@]7(O)[C@@H]6C[C@@H](O)[C@@]6(C)[C@]7(O)CC[C@@]6(O)C(C)=O)C5)CC4OC)CC3OC)CC2OC)OC(C)C1O (stereo not given in full)	> 12.5	> 12.5	> 12.5	> 12.5	> 12.5	> 12.5	> 12.5	> 12.5	> 12.5	> 12.5
Clc1cc2nnn(C3CCCO3)c2cc1Cl (stereo not given)	> 100	> 100	> 100	> 100	> 100	> 100	> 100	> 100	> 100	> 100
Cc1ccc(/C=C2\N=C(N3CCCC(CO)C3)NC2=O)cc1 (stereo not given)	> 100	> 100	> 100	> 100	> 100	> 100	> 100	> 100	> 100	> 100
O=S(=O)(O)c1cc(S(=O)(=O)O)c2c(N=Nc3ccc(N=Nc4ccccc4)cc3)c(O)ccc2c1	> 100	> 100	> 100	> 100	> 100	> 100	> 100	> 100	> 100	> 100
O=[N+]([O-])/C(C(Cl)=C(Cl)Cl)=C(/Nc1ccccc1)Sc1ccccc1	42.4	50.2	48.1	47.5	43	36.7	46.5	42.9	36.2	36.5
CC(C)c1ccc(/C=C2\CSCC3=C2N=C2SCC(=O)N2C3c2ccc(C(C)C)cc2)cc1 (stereo not given)	> 100	> 100	> 100	> 100	> 100	> 100	> 100	> 100	> 100	> 100
N#Cc1nc(-c2cccc(-c3nc(C#N)c(N)o3)n2)oc1N	> 100	> 100	> 100	> 100	> 100	> 100	> 100	> 100	> 100	> 100
O=C(Nc1ccc(Cl)cc1)c1cc(S(=O)(=O)Nc2n[nH]c(=O)n2-c2ccccc2)c(S)cc1Cl	> 100	> 100	> 100	> 100	> 100	> 100	> 100	> 100	> 100	> 100
CN1CCC2(CC1)C(=NC1CCCCC1)NC(=O)N2c1ccccc1	> 100	> 100	> 100	> 100	> 100	> 100	> 100	> 100	> 100	> 100
